According to the supplement of paper PMC10307832:

Legend:
Experiment in all cases: relative viability (nuclei count vs DMSO), 5 days (fraction); higher = more cells survive
[1] = test system: ChaGo-K-1
Method in brief: (§1)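 Five library-drug doses in √10 steps were combined with a fixed anchor-drug dose, or a single drug was given alone, by pin tool to lung cancer cell lines in 1536-well plates the day after seeding. Nuclei were stained and counted after 5 days. Relative viability is the nuclei count in treated wells over that in vehicle wells, taken as the median of duplicate plates.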

[2] = test system: HCC-78
Method in brief: as §1

[3] = test system: HCC-827
Method in brief: as §1

[4] = test system: LCLC-97TM1
Method in brief: as §1

[5] = test system: LK-2
Method in brief: as §1

[6] = test system: LOU-NH91
Method in brief: as §1

[7] = test system: NCI-H1355
Method in brief: as §1

[8] = test system: NCI-H1395
Method in brief: as §1

[9] = test system: NCI-H1755
Method in brief: as §1

[10] = test system: NCI-H1792
Method in brief: as §1

[11] = test system: NCI-H1993
Method in brief: as §1

[12] = test system: NCI-H2009
Method in brief: as §1

[13] = test system: NCI-H2085
Method in brief: as §1

[14] = test system: NCI-H2228
Method in brief: as §1

[15] = test system: NCI-H2342
Method in brief: as §1

[16] = test system: NCI-H2405
Method in brief: as §1

[17] = test system: NCI-H441
Method in brief: as §1

[18] = test system: NCI-H520
Method in brief: as §1

[19] = test system: NCI-H522
Method in brief: as §1

[20] = test system: NCI-H647
Method in brief: as §1

[21] = test system: NCI-H661
Method in brief: as §1

[22] = test system: PC-3 [JPC-3]
Method in brief: as §1

[23] = test system: SK-MES-1
Method in brief: as §1

SMILES: Oc1nc(-c2ccc(C(F)(F)F)cc2)nc2c1CSCC2 [XAV939] + O=C(c1cc(Cc2n[nH]c(=O)c3ccccc23)ccc1F)N1CCN(C(=O)C2CC2)CC1 [Olaparib] (partner 8 µM)
- relative viability ([1]; first compound 0.08 µM): 0.409
- relative viability ([1]; first compound 0.253 µM): 0.392
- relative viability ([1]; first compound 0.8 µM): 0.384
- relative viability ([1]; first compound 2.53 µM): 0.376
- relative viability ([2]; first compound 0.08 µM): 0.843
- relative viability ([2]; first compound 0.253 µM): 0.821
- relative viability ([2]; first compound 0.8 µM): 0.713
- relative viability ([2]; first compound 2.53 µM): 0.592
- relative viability ([3]; first compound 0.08 µM): 0.622
- relative viability ([3]; first compound 0.253 µM): 0.667
- relative viability ([3]; first compound 0.8 µM): 0.62
- relative viability ([3]; first compound 2.53 µM): 0.769
- relative viability ([4]; first compound 0.08 µM): 0.326
- relative viability ([4]; first compound 0.253 µM): 0.425
- relative viability ([4]; first compound 2.53 µM): 0.279
- relative viability ([5]; first compound 0.08 µM): 0.607
- relative viability ([5]; first compound 0.253 µM): 0.669
- relative viability ([5]; first compound 0.8 µM): 0.84
- relative viability ([5]; first compound 2.53 µM): 0.657
- relative viability ([6]; first compound 0.08 µM): 0.923
- relative viability ([6]; first compound 0.253 µM): 0.834
- relative viability ([6]; first compound 0.8 µM): 0.908
- relative viability ([6]; first compound 2.53 µM): 0.887
- relative viability ([7]; first compound 0.08 µM): 0.729
- relative viability ([7]; first compound 0.253 µM): 0.617
- relative viability ([7]; first compound 0.8 µM): 0.692
- relative viability ([7]; first compound 2.53 µM): 0.487
- relative viability ([8]; first compound 0.08 µM): 0.47
- relative viability ([8]; first compound 0.253 µM): 0.449
- relative viability ([8]; first compound 0.8 µM): 0.478
- relative viability ([8]; first compound 2.53 µM): 0.425
- relative viability ([9]; first compound 0.08 µM): 0.798
- relative viability ([9]; first compound 0.253 µM): 0.767
- relative viability ([9]; first compound 0.8 µM): 0.816
- relative viability ([9]; first compound 2.53 µM): 0.733
- relative viability ([10]; first compound 0.08 µM): 0.602
- relative viability ([10]; first compound 0.253 µM): 0.379
- relative viability ([10]; first compound 0.8 µM): 0.398
- relative viability ([10]; first compound 2.53 µM): 0.268
- relative viability ([11]; first compound 0.08 µM): 1.01
- relative viability ([11]; first compound 0.253 µM): 0.87
- relative viability ([11]; first compound 0.8 µM): 1.1
- relative viability ([11]; first compound 2.53 µM): 1.16
- relative viability ([12]; first compound 0.08 µM): 0.918
- relative viability ([12]; first compound 0.253 µM): 0.728
- relative viability ([12]; first compound 0.8 µM): 0.641
- relative viability ([12]; first compound 2.53 µM): 0.754
- relative viability ([13]; first compound 0.08 µM): 0.782
- relative viability ([13]; first compound 0.253 µM): 0.719
- relative viability ([13]; first compound 0.8 µM): 0.742
- relative viability ([13]; first compound 2.53 µM): 0.761
- relative viability ([14]; first compound 0.08 µM): 0.945
- relative viability ([14]; first compound 0.253 µM): 0.562
- relative viability ([14]; first compound 0.8 µM): 0.65
- relative viability ([14]; first compound 2.53 µM): 0.608
- relative viability ([15]; first compound 0.08 µM): 0.47
- relative viability ([15]; first compound 0.253 µM): 0.431
- relative viability ([15]; first compound 0.8 µM): 0.376
- relative viability ([15]; first compound 2.53 µM): 0.288
- relative viability ([16]; first compound 0.08 µM): 0.974
- relative viability ([16]; first compound 0.253 µM): 0.824
- relative viability ([16]; first compound 0.8 µM): 0.797
- relative viability ([16]; first compound 2.53 µM): 0.766
- relative viability ([17]; first compound 0.08 µM): 0.68
- relative viability ([17]; first compound 0.253 µM): 0.448
- relative viability ([17]; first compound 0.8 µM): 0.613
- relative viability ([17]; first compound 2.53 µM): 0.521
- relative viability ([18]; first compound 0.08 µM): 0.375
- relative viability ([18]; first compound 0.8 µM): 0.342
- relative viability ([18]; first compound 2.53 µM): 0.356
- relative viability ([19]; first compound 0.08 µM): 0.887
- relative viability ([19]; first compound 0.253 µM): 0.649
- relative viability ([19]; first compound 0.8 µM): 0.63
- relative viability ([19]; first compound 2.53 µM): 0.689
- relative viability ([20]; first compound 0.08 µM): 0.734
- relative viability ([20]; first compound 0.253 µM): 0.451
- relative viability ([20]; first compound 0.8 µM): 0.506
- relative viability ([20]; first compound 2.53 µM): 0.439
- relative viability ([21]; first compound 0.08 µM): 0.743
- relative viability ([21]; first compound 0.253 µM): 0.655
- relative viability ([21]; first compound 0.8 µM): 0.678
- relative viability ([21]; first compound 2.53 µM): 0.708
- relative viability ([22]; first compound 0.253 µM): 0.997
- relative viability ([22]; first compound 0.8 µM): 1.17
- relative viability ([22]; first compound 2.53 µM): 1.06
- relative viability ([23]; first compound 0.08 µM): 0.664
- relative viability ([23]; first compound 0.253 µM): 0.605
- relative viability ([23]; first compound 0.8 µM): 0.621
- relative viability ([23]; first compound 2.53 µM): 0.465
